Experiment [1] concerns HeLa nuclear extract HDAC1/2. In words: Fluor de Lys HDAC inhibition, HeLa nuclear extract. Particulars: HeLa nuclear extract; average of three independent experiments; Table 4; read-out: HDAC ½. In kind it is biochemical, human. An excerpt:
Fluor de Lys™ is a fluorescence based HDAC activity assay comprising a combination of fluorogenic Histone deAcetylase Lysyl substrate and a developer. The kit is a highly sensitive and convenient alternative to radiolabeled, acetylated histones or peptide/HPLC methods for the assay of histone deacetylases. This assay is based on the ability of HeLa nuclear extract, which is enriched in HDAC activity, to mediate the deacetylation of the acetylated lysine side chain of the Fluor de Lys substrate. The assay procedure requires two steps. First, incubation of the HeLa nuclear extract with the Fluor de Lys substrate results in substrate deacetylation and thus sensitizes it to the second step. In the second step, treatment of the deacetylated substrate with the Fluor de Lys developer produces a fluorophore. The substrate-developer reaction, under normal circumstances goes to completion in less than 1 min at 25° C. The kit used was the Fluorimetric Assay/Drug Discovery Kit—AK-500 Manual Fluorescent Assay System available from BIOMOL® International, Plymouth Meeting, Pa.
Each IC50 value was obtained by averaging three independent experiments.

In experiment [2] the target is T1, HDAC8 (Homo sapiens (Human), UniProt Q9BY41). The experiment is described as follows: Fluor de Lys HDAC8 inhibition. The experiment is classed as biochemical. Particulars: average of three independent experiments; Table 4; read-out: HDAC 8.
A further experiment has as its target HDAC1 (Homo sapiens (Human), UniProt Q13547). The experiment is described as follows: SAMDI mass spectrometry HDAC inhibition assay. In kind it is biochemical. Particulars: for HDAC1 inhibition, symbol: SAMDI; for inhibition at 10 µM / HDAC1 % inhibition: given if the IC50 was above 10 μM, at 10 μM. As for the experimental part:
(§1) There is precedence that fluorescently labeled substrates can perturb enzyme activity and the effect of inhibitors. […] Additionally, 3-hydroxypyridine-2-ones are highly colored solids and might lead to false positive signals. Mindful of these facts, a label-free SAMDI (self-assembled monolayers for MALDI) mass spectrometry assay was also used to assess HDAC inhibition.
(§2) The SAMDI technique, wherein self-assembled monolayers (SAM) of alkanethiolates on gold are analyzed by matrix assisted laser desorption/ionization (MALDI) mass spectrometry, has been widely used to characterize many biochemical activities, including the deacetylase enzyme family.

Experiment [3] has as its target T1, HDAC8. The experiment is described as follows: SAMDI mass spectrometry HDAC inhibition assay. In kind it is biochemical. Particulars: for inhibition at 10 µM / HDAC8 % inhibition: given if the IC50 was above 10 μM, at 10 μM; for IC50 / HDAC8 inhibition, symbol: SAMDI; for IC50: read-out: HDAC8 IC50. As for the experimental part:
as §1, §2

A further experiment concerns the target HDAC6 (Homo sapiens (Human), UniProt Q9UBN7). The experiment is described as follows: SAMDI mass spectrometry HDAC inhibition assay. In kind it is biochemical. Particulars: for HDAC6 inhibition, symbol / IC50: SAMDI; for IC50: read-out: HDAC6 IC50; for inhibition at 10 µM: read-out: HDAC6 % inhibition. As for the experimental part: as §1
The SAMDI technique, wherein self-assembled monolayers (SAM) of alkanethiolates on gold are analyzed by matrix assisted laser desorption/ionization (MALDI) mass spectrometry, has been widely used to characterize many biochemical activities, including the deacetylase enzyme family. The SAMDI assay was used to measure the inhibition constant (K1) of fragments against HDAC1, HDAC6 and HDAC8 using a previously identified preferred HDAC substrate.

Each structure is given as a SMILES string.

HDAC1, sequence (Q13547 whole entry): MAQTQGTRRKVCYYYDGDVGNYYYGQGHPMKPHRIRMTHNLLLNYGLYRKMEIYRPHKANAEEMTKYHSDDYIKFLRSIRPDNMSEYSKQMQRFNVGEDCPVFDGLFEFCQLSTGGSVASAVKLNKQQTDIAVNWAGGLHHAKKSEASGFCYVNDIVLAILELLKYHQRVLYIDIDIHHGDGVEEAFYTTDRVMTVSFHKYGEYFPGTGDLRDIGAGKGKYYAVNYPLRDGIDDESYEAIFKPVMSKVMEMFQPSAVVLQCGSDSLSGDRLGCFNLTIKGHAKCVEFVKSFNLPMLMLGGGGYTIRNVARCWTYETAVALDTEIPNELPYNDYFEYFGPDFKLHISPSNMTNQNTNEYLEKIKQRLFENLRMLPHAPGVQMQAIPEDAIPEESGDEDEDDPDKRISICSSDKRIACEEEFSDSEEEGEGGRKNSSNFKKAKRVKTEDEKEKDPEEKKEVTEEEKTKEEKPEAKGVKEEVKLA
T1 sequence (Q9BY41 whole entry): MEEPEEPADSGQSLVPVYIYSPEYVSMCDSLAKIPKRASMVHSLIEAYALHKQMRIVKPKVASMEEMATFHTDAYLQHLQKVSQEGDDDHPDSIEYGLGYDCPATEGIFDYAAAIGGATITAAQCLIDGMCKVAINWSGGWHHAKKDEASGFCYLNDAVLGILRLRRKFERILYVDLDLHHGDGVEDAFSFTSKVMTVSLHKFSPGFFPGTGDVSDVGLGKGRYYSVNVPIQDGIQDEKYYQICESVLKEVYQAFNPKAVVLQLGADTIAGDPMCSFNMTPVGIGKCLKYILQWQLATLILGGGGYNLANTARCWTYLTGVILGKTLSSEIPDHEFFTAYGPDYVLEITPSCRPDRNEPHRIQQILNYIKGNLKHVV
HDAC6, sequence (Q9UBN7 whole entry, the tested form may be a part): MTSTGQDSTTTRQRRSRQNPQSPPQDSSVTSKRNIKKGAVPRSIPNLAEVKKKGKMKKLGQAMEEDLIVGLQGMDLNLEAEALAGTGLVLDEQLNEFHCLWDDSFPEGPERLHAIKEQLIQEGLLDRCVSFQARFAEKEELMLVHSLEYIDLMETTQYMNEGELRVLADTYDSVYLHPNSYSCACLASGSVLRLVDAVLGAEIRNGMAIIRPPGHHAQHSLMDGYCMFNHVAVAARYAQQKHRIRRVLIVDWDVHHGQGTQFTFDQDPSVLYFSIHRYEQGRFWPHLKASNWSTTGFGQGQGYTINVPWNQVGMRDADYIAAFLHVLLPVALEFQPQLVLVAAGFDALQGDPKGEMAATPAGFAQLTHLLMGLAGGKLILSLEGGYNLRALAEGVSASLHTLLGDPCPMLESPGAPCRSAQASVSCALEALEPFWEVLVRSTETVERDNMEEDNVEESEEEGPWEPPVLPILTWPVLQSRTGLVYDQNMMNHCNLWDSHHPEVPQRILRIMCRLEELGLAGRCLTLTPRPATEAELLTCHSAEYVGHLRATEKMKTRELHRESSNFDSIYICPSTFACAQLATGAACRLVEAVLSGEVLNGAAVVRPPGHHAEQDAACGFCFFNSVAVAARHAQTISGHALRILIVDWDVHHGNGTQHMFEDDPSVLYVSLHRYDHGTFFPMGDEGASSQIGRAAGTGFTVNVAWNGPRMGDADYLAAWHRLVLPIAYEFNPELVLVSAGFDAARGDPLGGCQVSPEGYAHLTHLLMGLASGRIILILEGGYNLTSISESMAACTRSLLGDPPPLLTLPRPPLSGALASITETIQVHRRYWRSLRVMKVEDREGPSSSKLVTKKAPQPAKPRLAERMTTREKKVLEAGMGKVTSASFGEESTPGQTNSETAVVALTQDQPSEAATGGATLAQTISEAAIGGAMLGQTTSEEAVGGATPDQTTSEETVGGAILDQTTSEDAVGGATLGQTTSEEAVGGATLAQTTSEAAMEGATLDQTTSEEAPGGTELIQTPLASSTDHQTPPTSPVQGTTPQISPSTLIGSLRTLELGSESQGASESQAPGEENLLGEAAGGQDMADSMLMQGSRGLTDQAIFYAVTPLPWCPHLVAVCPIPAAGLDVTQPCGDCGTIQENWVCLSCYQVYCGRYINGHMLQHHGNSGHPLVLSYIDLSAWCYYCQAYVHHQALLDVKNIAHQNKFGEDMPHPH

Regarding `CC[C@H]1OC(=O)[C@H](C)[C@@H](O[C@H]2C[C@@](C)(OC)[C@@H](O)[C@H](C)O2)[C@H](C)[C@@H](O[C@@H]2O[C@H](C)C[C@H](N(C)Cc3ccc(-c4cn(CCCCCCCCCC(=O)NO)nn4)cc3)[C@H]2O)[C@](C)(OC)C[C@@H](C)C(=O)[C@H](C)[C@@H](O)[C@]1(C)O` [Compound 30, Clarithromycin-N-Phenyltriazolyldecahydroxamic acid], the IC50 in experiment [1] came out at 223 nM.
As for `CC[C@H]1OC(=O)[C@H](C)[C@@H](O[C@H]2C[C@@](C)(OC)[C@@H](O)[C@H](C)O2)[C@H](C)[C@@H](O[C@@H]2O[C@H](C)C[C@H](N(C)Cc3ccc(NC(=O)CCCCCCC(=O)NO)cc3)[C@H]2O)[C@](C)(O)C[C@@H](C)CN(C)[C@H](C)[C@@H](O)[C@]1(C)O` [Compound 36, Azithromycin-arylalkyl hydroxamic acid], the IC50 stood at 107 nM in experiment [1] and 6680 nM on HDAC8 [2].
Consider `CC[C@H]1OC(=O)[C@H](C)[C@@H](O)[C@H](C)[C@@H](O[C@@H]2O[C@H](C)C[C@H](N(C)Cc3ccc(NC(=O)CCCCCCC(=O)NO)cc3)[C@H]2O)[C@](C)(O)C[C@@H](C)CN(C)[C@H](C)[C@@H](O)[C@]1(C)O` [Compound 38, Desclasinose-azithromycin-arylalkyl hydroxamic acid], for which the values for the IC50 (in experiment [1]; at HDAC8 [2]) were 110 nM and 2320 nM, respectively.
The term inhibition denotes the share of the control response that was lost under treatment. For `O=c1c(O)cccn1Cc1cn(-c2ccccc2)nn1` [Compound 152a, 1-Phenyltriazolylmethyl-3-hydroxypyridine-2-one], the “HDAC1 inhibition, symbol” value on HDAC1 is recorded as “NI (No significant Inhibition (below 20% Inhibition))”. On HDAC8 [3], this molecule returned an inhibition at 10 µM of 17%. Moreover, the “HDAC6 inhibition, symbol” value on HDAC6 was “NI (No significant Inhibition (below 20% Inhibition))”.
Turning to `CN(C)c1ccc(-n2cc(Cn3cccc(O)c3=O)nn2)cc1` [Compound 152b, 1-(4-Dimethylamino)phenylltriazolylmethyl-3-hydroxypyridine-2-one], the “HDAC1 inhibition, symbol” value on HDAC1 is listed as “NI (No significant Inhibition (below 20% Inhibition))”. Further, on HDAC8 [3], the inhibition at 10 µM turned out to be 8%. The “HDAC6 inhibition, symbol” value on HDAC6 is listed as “NI (No significant Inhibition (below 20% Inhibition))”.
As for `CN(C)c1ccc(-n2cc(Cn3cccc(O)c3=S)nn2)cc1` [Compound 154b, 1-(4-Dimethylamino)phenylltriazolylmethyl-3-hydroxypyridine-2-thione], the “HDAC1 inhibition, symbol” value at HDAC1 is reported as “NI (No significant Inhibition (below 20% Inhibition))”. For the same molecule, the figures for the IC50 at HDAC8 [3] and at HDAC6 were 1870 ± 723 nM and 1020 ± 99 nM, respectively.
Consider `O=c1c(O)cccn1CCn1cc(-c2ccccc2)nn1` [Compound 159a, 1-Phenyltriazolylethyl-3-hydroxypyridine-2-one], for which the inhibition at 10 µM against HDAC1 stood at 12%; at HDAC8 [3] it was 15%. Besides, the “HDAC6 inhibition, symbol” value on HDAC6 is “NI (No significant Inhibition (below 20% Inhibition))”.
As for `O=c1c(O)cccn1CCCn1cc(-c2ccccc2)nn1` [Compound 159b, 1-Phenyltriazolylpropyl-3-hydroxypyridine-2-one], the values for the inhibition at 10 µM against HDAC1, on HDAC8 [3] and on HDAC6 were 8%, 47% and 41%, respectively.
At HDAC1, `O=c1c(O)cccn1CCCCn1cc(-c2ccccc2)nn1` [Compound 159c, 1-Phenyltriazolylbutyl-3-hydroxypyridine-2-one] had an HDAC1 % inhibition of 12% and an inhibition at 10 µM of 15%. At HDAC8 [3], this molecule showed an HDAC8 % inhibition of 5% and an inhibition at 10 µM of 10%. In addition, the “HDAC6 inhibition, symbol” value on HDAC6 is given as “NI (No significant Inhibition (below 20% Inhibition))”.
Take `O=c1c(O)cccn1CCCCCn1cc(-c2ccccc2)nn1` [Compound 159d, 1-Phenyltriazolylpentyl-3-hydroxypyridine-2-one]: the HDAC1 % inhibition on HDAC1 is given as 43%. Also, the HDAC8 % inhibition on HDAC8 [3] stood at 30%. Besides, the “HDAC6 inhibition, symbol” value on HDAC6 is recorded as “NI (No significant Inhibition (below 20% Inhibition))”.
With `O=c1c(O)cccn1CCCCCCCn1cc(-c2ccccc2)nn1` [Compound 159f, 1-Phenyltriazolylheptyl-3-hydroxypyridine-2-one], the HDAC1 % inhibition on HDAC1 is reported as 2%. At HDAC8 [3], this molecule returned an HDAC8 % inhibition of 42%. This molecule gave an HDAC6 % inhibition on HDAC6 (at 10 μM, given if the IC50 was above 10 μM) of 34%.
With `Oc1cccn(CCn2cc(-c3ccccc3)nn2)c1=S` [Compound 161, 1-Phenyltriazolylethyl-3-hydroxypyridine-2-thione], the inhibition at 10 µM at HDAC1 is 21%; against HDAC8 [3], 56%; on HDAC6 it was 14%.
As for `Cc1ccc(-c2cn(CCCCCn3cccc(O)c3=O)nn2)cc1` [Compound 166a, 1-(4-Tolyl)triazolylpentyl-3-hydroxypyridine-2-one], the inhibition at 10 µM on HDAC1 was found to be 66%; on HDAC8 [3], 15%. In addition, on HDAC6, the “HDAC6 inhibition, symbol” value is recorded as “NI (No significant Inhibition (below 20% Inhibition))”.
As for `Cc1cccc(-c2cn(CCCCCn3cccc(O)c3=O)nn2)c1` [Compound 166b, 1-(3-Tolyl)triazolylpentyl-3-hydroxypyridine-2-one], the inhibition at 10 µM at HDAC1 is 88%. Besides, the “HDAC8 inhibition, symbol” value on HDAC8 [3] is given as “NI (No significant Inhibition (below 20% Inhibition))”. The “HDAC6 inhibition, symbol” value on HDAC6 is given as “NI (No significant Inhibition (below 20% Inhibition))”.
On to `N#Cc1ccc(-c2cn(CCCCCn3cccc(O)c3=O)nn2)cc1` [Compound 166d, 1-(4-Benzonitrile)triazolylpentyl-3-hydroxypyridine-2-one], for which the inhibition at 10 µM at HDAC1 was 70%; against HDAC8 [3], 26%. The “HDAC6 inhibition, symbol” value on HDAC6 was “NI (No significant Inhibition (below 20% Inhibition))”.
In the case of `N#Cc1cccc(-c2cn(CCCCCn3cccc(O)c3=O)nn2)c1` [Compound 166e, 1-(3-Benzonitrile)triazolylpentyl-3-hydroxypyridine-2-one], the inhibition at 10 µM on HDAC1 stood at 71%. Further, the “HDAC8 inhibition, symbol” value on HDAC8 [3] is “NI (No significant Inhibition (below 20% Inhibition))”. In addition, the “HDAC6 inhibition, symbol” value at HDAC6 is recorded as “NI (No significant Inhibition (below 20% Inhibition))”.
For `CN(C)c1ccc(-c2cn(CCCCCn3cccc(O)c3=O)nn2)cc1` [Compound 166f, 1-(4-(N,N-dimethylaniline))triazolylpentyl-3-hydroxypyridine-2-one], the inhibition at 10 µM on HDAC1 came out at 59%; on HDAC8 [3] it was 28%. Further, the “HDAC6 inhibition, symbol” value on HDAC6 is on record as “NI (No significant Inhibition (below 20% Inhibition))”.
For `N#Cc1ccc(-c2cn(CCCCCn3cccc(O)c3=O)nn2)cc1C(F)(F)F` [Compound 166g, 1-(4-(3-Trifluomethyl)-benzonitrile)triazolylpentyl-3-hydroxypyridine-2-one] the same measures were 71%, 14% and “NI (No significant Inhibition (below 20% Inhibition))”.
At HDAC1, `N#Cc1ccc(-c2cn(CCCCCn3cccc(O)c3=S)nn2)cc1` [Compound 167d, 1-(4-Benzonitrile)triazolylpentyl-3-hydroxypyridine-2-thione] registered an inhibition at 10 µM of 33%. Besides, the figures for the IC50 at HDAC8 [3] and at HDAC6 were 1460 nM and 905 ± 249 nM, respectively.
For `CN(C)c1ccc(-c2cn(CCCCCn3cccc(O)c3=S)nn2)cc1` [Compound 167f] the same measures were 28%, 1480 nM and 1010 ± 425 nM.
For `N#Cc1ccc(-c2cn(CCCCCn3cccc(O)c3=S)nn2)cc1C(F)(F)F` [Compound 167g, 1-(4-(3-Trifluomethyl)-benzonitrile)triazolylpentyl-3-hydroxypyridine-2-thione] the same measures were 55%, 2260 nM and 661 ± 121 nM.

Source of the values: US8871728B2, “Non-peptide macrocyclic histone deacetylese (HDAC) inhibitors and methods of making and using thereof” (Georgia Tech Research Corporation, priority 2007, dated 2014).
